Among the data in patent US20080004271A1, “Inhibitors of TNFalpha, PDE4 and B-RAF, compositions thereof and methods of use therewith” (priority 2006, published 2008) are melting point and IC50 values, retold here.

Each structure is given as a SMILES string. A value given as a limit tells only on which side of the number the result lay.

One series deals with T1, V600E mutant B-RAF (Homo sapiens, UniProt P15056, V600E).
T1 construct: purchased Upstate
As to the kind of experiment: V600E Mutant B-RAF 33P Assay. It is filed as biochemical.

The test system of the next series is pMEK1/2 in A375 cells. As to the kind of experiment: A375 pMEK1/2 Meso Scale Assay. Type of series: cell-based. As to conditions: Homo sapiens, A-375, 2 h; A375 pMEK1/2, about two hours incubation. As for the experimental part: On the afternoon of Day 1, cells are plated in a 96-well flat bottom cell culture plate at about 50,000 cells/well in a volume of 100 μl. On the morning of Day 2, serial dilutions of test compound(s) are added to the plate. The plate is incubated for about two hours at 37° C., […]. The plate is blocked about five minutes before the compound incubation step is completed by adding 150 μl/well of MSD (Meso Scale Discovery) blocking solution-A (prepared with 20 ml 1× Tris wash buffer (25 ml of 10× Tris buffer+225 ml deionized water) and 600 mg MSD blocker A) and incubating with vigorous shaking at room temperature for one hour. The plate is washed 4× with 1× Tris wash buffer.
Cells are harvested and lysates prepared by removing medium, washing 1× with ice-cold PBS (calcium and magnesium free), adding 50 μl/well Complete Tris buffer and incubating with shaking at 4° C. for one hour. Lysate samples (25 μl) are added to an MSD Multi-Spot plate and incubated with vigorous shaking at room temperature for two hours. The plate is washed 1× with Tris wash buffer.
25 μl/well of […] detection antibody (Anti-pMEK1/2 antibody; SULFO-TAG labeled, light sensitive) in 3 ml of cold antibody dilution buffer (1 ml blocking solution-A, 1.82 ml 1× Tris wash buffer, 150 μl 2% MSD blocker D-M and 30 μl 10% MSD blocker D-R) is added and the plate is incubated with vigorous shaking at room temperature in the dark for one hour. The plate is washed 1× with Tris wash buffer.
150 μl/well of 1× MSD Read buffer T (with surfactant) is added to the plate and the plate is read using a MSD Sector instrument.

The subject of the next series is A375 cells. As to the kind of experiment: Alamar Blue Viability Assay. It is filed as cell-based. As to conditions: Homo sapiens, A-375, 72 h, 3 days. Summed up:
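A375 cells (1,000/well) plated overnight, then treated in triplicate at 0.6–60 μM final, 0.2% DMSO, for 3 days at 37° C. Viability by Alamar Blue fluorescence (ex 530/em 590 nm, 4 h); percent of DMSO control used to plot IC50 curves.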
In general terms: Alamar Blue is a resazurin reagent that responds to reducing activity.

T1 sequence (P15056 whole entry V600E): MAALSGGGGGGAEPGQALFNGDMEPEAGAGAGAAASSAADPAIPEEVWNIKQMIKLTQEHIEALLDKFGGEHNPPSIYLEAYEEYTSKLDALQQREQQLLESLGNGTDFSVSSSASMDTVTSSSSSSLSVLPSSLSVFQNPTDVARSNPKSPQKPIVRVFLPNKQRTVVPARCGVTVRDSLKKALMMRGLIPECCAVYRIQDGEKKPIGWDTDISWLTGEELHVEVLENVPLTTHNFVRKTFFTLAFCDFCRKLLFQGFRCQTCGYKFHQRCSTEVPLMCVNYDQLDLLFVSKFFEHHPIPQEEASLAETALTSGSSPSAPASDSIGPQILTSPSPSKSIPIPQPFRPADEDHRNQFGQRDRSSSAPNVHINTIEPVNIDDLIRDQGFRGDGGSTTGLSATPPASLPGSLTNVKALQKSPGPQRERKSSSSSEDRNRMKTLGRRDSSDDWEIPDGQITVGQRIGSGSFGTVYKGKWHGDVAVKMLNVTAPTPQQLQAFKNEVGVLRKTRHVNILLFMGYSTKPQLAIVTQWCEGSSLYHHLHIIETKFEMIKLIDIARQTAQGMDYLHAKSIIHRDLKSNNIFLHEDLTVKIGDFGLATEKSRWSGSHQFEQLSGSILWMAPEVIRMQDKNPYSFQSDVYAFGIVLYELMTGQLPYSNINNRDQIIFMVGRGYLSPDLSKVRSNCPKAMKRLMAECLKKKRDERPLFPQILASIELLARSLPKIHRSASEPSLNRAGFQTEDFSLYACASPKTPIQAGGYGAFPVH

The compound `NC(=O)c1sc2ncnc(-c3cc4c(c(OCc5ccccc5)c3)CCO4)c2c1N` [Example 5.2.140, 5-amino-4-(4-(benzyloxy)-2,3-dihydrobenzofuran-6-yl)thieno[2,3-d]pyrimidine-6-carboxamide] came in with a melting point of 239 °C.
Compound `NC(=O)c1sc2ncnc(-c3cc(O)c4c(c3)OCC4)c2c1N` [Example 5.2.141, 5-amino-4-(4-hydroxy-2,3-dihydrobenzofuran-6-yl)thieno[2,3-d]pyrimidine-6-carboxamide] showed a melting point of 285 °C.
Same read-out and setting: for `NC(=O)c1sc2ncnc(-c3cccc(NC(=O)Nc4ccncc4)c3)c2c1N` [Example 5.2.166, 5-amino-4-{3-[(4-pyridylamino)carbonylamino]phenyl}-thiopheno[2,3-d]pyrimidine-6-carboxamide] the value was 177 to 179 °C; for `NC(=O)c1sc2ncnc(-c3cccc(NC(=O)Nc4cccnc4)c3)c2c1N` [Example 5.2.167, 5-amino-4-{3-[(3-pyridylamino)carbonylamino]phenyl}-thiopheno[2,3-d]pyrimidine-6-carboxamide], 199 to 200 °C.
The same measure, in the same setting: for `NC(=O)c1sc2ncnc(-c3cccc(NC(=O)Nc4cccc(C(F)(F)F)c4)c3)c2c1N` [Example 5.2.169, 5-amino-4-[3-({[3-(trifluoromethyl)phenyl]amino}-carbonylamino)phenyl]thiopheno[2,3-d]pyrimidine-6-carboxamide] the value was 201 to 203 °C.
On the same count and under the same terms, next, `NC(=O)c1sc2ncnc(-c3cccc(NC(=O)Nc4ccccc4C(F)(F)F)c3)c2c1N` [Example 5.2.170, 5-amino-4-[3-({[2-(trifluoromethyl)phenyl]amino}-carbonylamino)phenyl]thiopheno[2,3-d]pyrimidine-6-carboxamide]: 172 to 175 °C.
With `NC(=O)c1sc2nc(N[C@H]3CCOC3)nc(-c3ccc(Cl)c(Cl)c3)c2c1N` [Example 228], the IC50 on V600E mutant B-RAF lay in the range of 0.1 to 10 µM; with pMEK1/2 in A375 cells, 0.1 to 10 µM; in the series on A375 cells, 10 to 20 µM.
In the case of `COc1ccc(F)c(-c2nc(NC3CC3)nc3sc(C(N)=O)c(N)c23)c1` [Example 230], the IC50 lay in the range of 0.1 to 10 µM against V600E mutant B-RAF, 10 to 20 µM with pMEK1/2 in A375 cells and 20 to 30 µM with A375 cells.
The like results for `NC(=O)c1sc2nc(NC3CC3)nc(-c3cc(O)ccc3F)c2c1N` [Example 231] were, in that order, 0.1 to 10 µM, 0.1 to 10 µM and 0.1 to 10 µM.
The like results for `NC(=O)c1sc2nc(NC3CC3)nc(-c3ccc(C(F)(F)F)c(O)c3)c2c1N` [Example 234] were, in that order, 0.1 to 10 µM, 0.1 to 10 µM and 30 to 60 µM.
On to `Cc1c(O)cccc1-c1nc(NC(C)(C)CO)nc2sc(C(N)=O)c(N)c12` [Example 239], for which the IC50 against V600E mutant B-RAF, in the series on pMEK1/2 in A375 cells and in the series with A375 cells was 0.1 to 10 µM in each case.
Turning to `C[C@@H](CO)Nc1nc(-c2cccc(O)c2F)c2c(N)c(C(N)=O)sc2n1` [Example 240], the IC50 against V600E mutant B-RAF lay within 0.1 to 10 µM; in the series on pMEK1/2 in A375 cells, 0.1 to 10 µM; in the series on A375 cells it was 20 to 30 µM.
Consider `C[C@H](CO)Nc1nc(-c2cccc(O)c2F)c2c(N)c(C(N)=O)sc2n1` [Example 241], for which the IC50 was in the range of 0.1 to 10 µM against V600E mutant B-RAF, 0.1 to 10 µM with pMEK1/2 in A375 cells and 10 to 20 µM in the series with A375 cells.
Regarding `CC[C@@H](CO)Nc1nc(-c2cccc(O)c2F)c2c(N)c(C(N)=O)sc2n1` [Example 242], the figures for the IC50 against V600E mutant B-RAF, in the series with pMEK1/2 in A375 cells and with A375 cells were 0.1 to 10 µM, 0.1 to 10 µM and 10 to 20 µM, respectively.
On to `CC[C@H](CO)Nc1nc(-c2cccc(O)c2F)c2c(N)c(C(N)=O)sc2n1` [Example 243], for which the IC50 on V600E mutant B-RAF, in the series with pMEK1/2 in A375 cells and with A375 cells was 0.1 to 10 µM each time.
Take `NC(=O)c1sc2nc(NC3CC3)nc(-c3cccc(NCCc4ccccc4)c3)c2c1N` [Example 247]: the IC50 at V600E mutant B-RAF, in the series on pMEK1/2 in A375 cells and in the series on A375 cells was 0.1 to 10 µM each time.
For the compound `NC(=O)c1sc2nc(NC3CC3)nc(-c3cccc(NC(=O)Nc4ccc(Cl)c(C(F)(F)F)c4)c3)c2c1N` [Example 249], the IC50 on V600E mutant B-RAF, with pMEK1/2 in A375 cells and with A375 cells was 0.1 to 10 µM each time.
With `NC(=O)c1sc2nc(NC3CC3)nc(-c3cccc(NC(=O)Nc4ccc(F)cc4)c3)c2c1N` [Example 252], the IC50 against V600E mutant B-RAF, with pMEK1/2 in A375 cells and in the series on A375 cells was 0.1 to 10 µM in each case.
With `CC(C)(CN)CNc1nc(-c2ccc(Cl)c(Cl)c2)c2c(N)c(C(N)=O)sc2n1` [Example 253], the IC50 on V600E mutant B-RAF, in the series with pMEK1/2 in A375 cells and in the series on A375 cells was 0.1 to 10 µM each time.
In the case of `CC(C)(CN)Nc1nc(-c2ccc(Cl)c(Cl)c2)c2c(N)c(C(N)=O)sc2n1` [Example 256], the IC50 against V600E mutant B-RAF, in the series on pMEK1/2 in A375 cells and in the series on A375 cells was 0.1 to 10 µM in each case.
On to `CC[C@H](CO)Nc1nc(-c2cccc(NC(=O)Nc3ccc(C(F)(F)F)cc3)c2)c2c(N)c(C(N)=O)sc2n1` [Example 258], for which the IC50 at V600E mutant B-RAF, with pMEK1/2 in A375 cells and with A375 cells was 0.1 to 10 µM throughout.
Take `CC[C@@H](CO)Nc1nc(-c2cccc(NC(=O)Nc3ccc(C(F)(F)F)cc3)c2)c2c(N)c(C(N)=O)sc2n1` [Example 259]: the IC50 on V600E mutant B-RAF, in the series with pMEK1/2 in A375 cells and in the series on A375 cells was 0.1 to 10 µM each time.
Turning to `C[C@@H](CO)Nc1nc(-c2cccc(NC(=O)Nc3ccc(C(F)(F)F)cc3)c2)c2c(N)c(C(N)=O)sc2n1` [Example 261], the IC50 on V600E mutant B-RAF is 0.1 to 10 µM; in the series with pMEK1/2 in A375 cells, 0.1 to 10 µM; with A375 cells, 10 to 20 µM.
For `CC(C)(CO)Nc1nc(-c2cc(O)c(Cl)c(Cl)c2)c2c(N)c(C(N)=O)sc2n1` [Example 264], the IC50 against V600E mutant B-RAF, with pMEK1/2 in A375 cells and with A375 cells was 0.1 to 10 µM in each case.
With `Cc1ccc(-c2nc(NC3CC3)nc3sc(C(N)=O)c(N)c23)cc1` [Example 265], the IC50 at V600E mutant B-RAF is 0.1 to 10 µM; with pMEK1/2 in A375 cells, 20 to 30 µM; in the series with A375 cells, 20 to 30 µM.
Take `Cc1nc(-c2ccc(Cl)c(Cl)c2)c2c(N)c(C(N)=O)sc2n1` [Example 270]: the IC50 at V600E mutant B-RAF lay in the range of 0.1 to 10 µM; with pMEK1/2 in A375 cells, 20 to 30 µM; in the series with A375 cells it was 0.1 to 10 µM.
Regarding `CC(C)Cc1nc(-c2ccc(Cl)c(Cl)c2)c2c(N)c(C(N)=O)sc2n1` [Example 271], the IC50 on V600E mutant B-RAF is 0.1 to 10 µM; with pMEK1/2 in A375 cells, 30 to 60 µM; with A375 cells, 10 to 20 µM.
The like results for `CC(C)[C@H](CO)Nc1nc(-c2ccc(Cl)c(Cl)c2)c2c(N)c(C(N)=O)sc2n1` [Example 273] were, in that order, 0.1 to 10 µM, 0.1 to 10 µM and 10 to 20 µM.
`Cc1ccc(-c2nc(NC(C)(C)CO)nc3sc(C(N)=O)c(N)c23)cc1O` [Example 274]: the IC50 at V600E mutant B-RAF, with pMEK1/2 in A375 cells and with A375 cells was 0.1 to 10 µM in each case.
With `COc1cncc(-c2ncnc3sc(C(N)=O)c(N)c23)c1` [Example 275], the IC50 against V600E mutant B-RAF lay in the range of 0.1 to 10 µM; in the series with pMEK1/2 in A375 cells it was 10 to 20 µM; in the series with A375 cells, 10 to 20 µM.
As to `COc1cncc(-c2nc(C)nc3sc(C(N)=O)c(N)c23)c1` [Example 276], the IC50 is 0.1 to 10 µM against V600E mutant B-RAF, more than 60 µM in the series on pMEK1/2 in A375 cells and 10 to 20 µM in the series on A375 cells.
On to `NC(=O)c1sc2ncnc(-c3cc(O)cc(Cl)c3)c2c1N` [Example 280], for which the IC50 on V600E mutant B-RAF, in the series with pMEK1/2 in A375 cells and with A375 cells was 0.1 to 10 µM each time.
Take `CC(C)(CN)Nc1nc(-c2cccc(NC(=O)Nc3ccc(C(F)(F)F)cc3)c2)c2c(N)c(C(N)=O)sc2n1` [Example 282]: the IC50 was 0.1 to 10 µM against V600E mutant B-RAF, 10 to 20 µM with pMEK1/2 in A375 cells and 10 to 20 µM with A375 cells.
With `NC(=O)c1sc2ncnc(-c3cccc(NC(=O)Cc4ccccc4)c3)c2c1N` [Example 291], the figures for the IC50 on V600E mutant B-RAF, in the series with pMEK1/2 in A375 cells and with A375 cells were 0.1 to 10 µM, 0.1 to 10 µM and 10 to 20 µM, respectively.
As for `NC(=O)c1sc2ncnc(-c3cccc(NC(=O)Nc4ccncc4)c3)c2c1N` [Example 292], the IC50 against V600E mutant B-RAF is 0.1 to 10 µM; with pMEK1/2 in A375 cells, more than 60 µM; in the series with A375 cells it was 10 to 20 µM.
For `NC(=O)c1sc2ncnc(-c3cccc(NC(=O)Nc4cccc(C(F)(F)F)c4)c3)c2c1N` [Example 295], in that order: 0.1 to 10 µM, 0.1 to 10 µM and 0.1 to 10 µM.
As for `NC(=O)c1sc2ncnc(-c3cccc(NC(=O)Nc4ccccc4C(F)(F)F)c3)c2c1N` [Example 296], the IC50 against V600E mutant B-RAF was in the range of 0.1 to 10 µM; in the series with pMEK1/2 in A375 cells, 30 to 60 µM; with A375 cells, 10 to 20 µM.

In general, melting point refers to the temperature, or range, at which the solid turns liquid. A word on the IC50: it is the point on the concentration scale where inhibition reaches its midpoint. Read a high IC50 as a need for much substance.
